Reference: patent US20230181491A1, “COMPOSITIONS AND METHODS FOR THE TREATMENT AND MANAGEMENT OF INFLAMMATION USING HYDROXYNORKETAMINE” (SPIRIFY PHARMA INC., priority 2020, published 2023)
Counter-ions that a name gives are not always drawn. Like-named read-outs stand apart in the source and are kept apart here.

Experiments:
[1] = tested on: human primary monocytes; experiment: Viability of human primary monocytes (Alamar Blue); details: 50 μM and 250 μM; for viability of human primary monocytes: then 24 h LPS
Description: Viability of human primary monocytes—viable human primary monocyte cells were counted using Alamar Blue. Treatment with toxic amounts of sodium fluoride (NaF at 250 μg/ml) was used as control.
To this end, human primary monocytes were incubated for 24 hours and 48 hours with (R,S)-ketamine, (2R,6R)-hydroxynorketamine, (R,S)-norketamine, and (R,S)-dehydronorketamine at concentrations of 50 μM and 250 μM. LPS alone and treatment with dexamethasone (1 μM) were used as controls. Monocyte cells' viability was measured using Alamar blue to evaluate toxicity of the agents.

[2] = tested on: LPS-induced human primary monocytes; experiment: Release of cytokines (IL-6, TNF-α, IL-8, IL-1β) and PGE2 from LPS-induced human primary monocytes (ELISA, normalized to LPS = 100%); format: cell-based; details: for effect on secretion of all proinflammatory cytokines tested (IL-6, IL-1β, TNF-α, IL-8): 0.1 μM-250 μM; for inhibition at 50 µM / inhibition at 250 µM: Homo sapiens, Monocyte
[3] = tested on: rats; details: cited from earlier work
[4] = tested on: rodents; details: cited from earlier work
[5] = tested on: COVID-19 patients; details: cited from earlier work
[6] = tested on: radical prostatectomy patients; details: cited from earlier work
[7] = 50 μM and 250 μM, 24 h pre-treatment, then 24 h LPS
[8] = 50 μM and 250 μM, 48 h pre-treatment, then 24 h LPS
[9] = 30 min pre-treatment, then 24 h LPS
[10] = 50 μM, 48 h pre-treatment, then 24 h LPS
[11] = 250 μM, 30 min pre-treatment, then 24 h LPS, read-out: inhibition of LPS-induced IL-1β release
[12] = 250 μM, 30 min pre-treatment, then 24 h LPS, read-out: inhibition of LPS-induced IL-6 release
[13] = 250 μM, 30 min pre-treatment, then 24 h LPS, read-out: inhibition of LPS-induced IL-8 release
[14] = 250 μM, 30 min pre-treatment, then 24 h LPS, read-out: inhibition of LPS-induced TNF-α release
[15] = 250 μM, 24 h pre-treatment, then 24 h LPS, read-out: inhibition of LPS-induced IL-6 release
[16] = 250 μM, 24 h pre-treatment, then 24 h LPS, read-out: inhibition of LPS-induced TNF-α release
[17] = 250 μM, 48 h pre-treatment, then 24 h LPS, read-out: inhibition of LPS-induced TNF-α release
[18] = 250 μM, 30 min pre-treatment, then 24 h LPS
[19] = 250 μM, 24 h pre-treatment, then 24 h LPS

In the case of `NC1(c2ccccc2Cl)CCC=CC1=O` (racemic) [(R,S)-dehydronorketamine], the “viability of human primary monocytes” value ([1]; 24 h pre-treatment) is reported as “highly toxic to the cells”, the “viability of human primary monocytes” value ([1]; 48 h pre-treatment) is reported as “induced a massive cells' mortality” and the “effect on IL-6 secretion” value [2, 7] is reported as “dramatically reduced all cytokines release”. The “effect on LPS-induced IL-8 release” value [2, 7] was “dramatically reduced all cytokines release”, the “effect on PGE2 secretion” value [2, 7] was “dramatically reduced” and the “effect on TNF-α secretion” value [2, 7] was “dramatically reduced all cytokines release”. For the same molecule, the “effect on IL-6 secretion” value [2, 8] was “dramatically reduced all cytokines release”, the “effect on LPS-mediated IL-8 release” value [2, 8] was “dramatically reduced all cytokines release” and the “effect on PGE2 secretion” value [2, 8] was “dramatically reduced”. The “effect on TNF-α secretion” value [2, 8] was “dramatically reduced all cytokines release”.

For `CNC1(c2ccccc2Cl)CCCCC1=O` (racemic) [(R,S)-ketamine hydrochloride], the anesthetic effects [3] is listed as “produced anesthetic actions”, the “effect on secretion of all proinflammatory cytokines tested (IL-6, IL-1β, TNF-α, IL-8)” value (“effect on secretion” for short) [2, 9] is listed as “potent inhibitory effect” and the “effect on IL-6 secretion” value [2, 7] is listed as “inhibition in the secretion”. For the same molecule, the “effect on LPS-induced IL-8 release” value [2, 7] was “without affecting IL-8”, the “effect on PGE2 secretion” value [2, 7] was “inhibition in the secretion” and the “effect on TNF-α secretion” value [2, 7] was “inhibition in the secretion”. For the same molecule, the “effect on IL-6 secretion” value [2, 8] was “inhibition of TNF-α, IL-6, and PGE2 secretion”, the “effect on PGE2 secretion” value [2, 8] was “inhibition of TNF-α, IL-6, and PGE2 secretion” and the “effect on TNF-α secretion” value [2, 8] was “inhibition of TNF-α, IL-6, and PGE2 secretion”. The inhibition at 50 µM [2, 10] was about 40%, the inhibition at 250 µM [2, 11] was 30 to 60% and the inhibition at 250 µM [2, 12] was 30 to 60%. For the same molecule, the inhibition at 250 µM [2, 13] was 30 to 60%, the inhibition at 250 µM [2, 14] was 30 to 60% and the inhibition at 250 µM [2, 15] was about 30%. The inhibition at 250 µM [2, 16] was about 70% and the inhibition at 250 µM [2, 17] was about 75%.

In the case of `NC1(c2ccccc2Cl)CCCCC1=O` (racemic) [(R,S)-norketamine], the anesthetic effects [3] is listed as “produced anesthetic actions”, the “effect on IL-6 secretion” value [2, 7] is listed as “remained without any significant change” and the “effect on LPS-induced IL-8 release” value [2, 7] is listed as “remained without any significant change”. For the same molecule, the “effect on PGE2 secretion” value [2, 7] was “promoted the secretion of PGE2”, the “effect on TNF-α secretion” value [2, 7] was “inhibited the secretion of TNF-α only at the higher dose tested” and the “effect on IL-6 secretion” value [2, 8] was “inhibited the secretion of TNF-α and IL-6”. The “effect on PGE2 secretion” value [2, 8] was “promoted the secretion of the proinflammatory agent PGE2 at 250 μM” and the “effect on TNF-α secretion” value [2, 8] was “inhibited the secretion of TNF-α and IL-6”.

For `N[C@@]1(c2ccccc2Cl)CCC[C@@H](O)C1=O` [(2R,6R)-2-amino-2-(2-chlorophenyl)-6-hydroxycyclohexanone], the “safety to monocytes (viability), overall conclusion” value ([1]; 24 h and 48 h pre-treatment) was “monocytes safety”, the “effect on secretion” value [2, 9] was “cytokines release decrease in a dose dependent manner” and the “effect on IL-6 secretion” value [2, 7] was “inhibition in the secretion”. The “effect on LPS-induced IL-8 release” value [2, 7] was “not affected”, the “effect on PGE2 secretion” value [2, 7] was “inhibition in the secretion” and the “effect on TNF-α secretion” value [2, 7] was “inhibition in the secretion”. For the same molecule, the “effect on IL-6 secretion” value [2, 8] was “inhibition of TNF-α, IL-6, and PGE2 secretion”, the “effect on PGE2 secretion” value [2, 8] was “inhibition of TNF-α, IL-6, and PGE2 secretion” and the “effect on TNF-α secretion” value [2, 8] was “inhibition of TNF-α, IL-6, and PGE2 secretion”. For the same molecule, the inhibition at 50 µM [2, 10] was about 20%, the inhibition at 250 µM [2, 11] was about 20% and the inhibition at 250 µM [2, 12] was about 20%. It also gave an inhibition at 250 µM [2, 13] of about 20%, an inhibition at 250 µM [2, 14] of about 30% and an inhibition at 250 µM [2, 15] of about 35%. The inhibition at 250 µM [2, 16] was about 40%, the inhibition at 250 µM [2, 17] was about 55% and the antidepressant-relevant behavioral responses [4] was “exert antidepressant-relevant behavioral responses”.

With `N[C@]1(c2ccccc2Cl)CCC[C@H](O)C1=O` [(2S,6S)-hydroxynorketamine hydrochloride, (2S,65)-2-amino-2-(2-chlorophenyl)-6-hydroxycyclohexanone] the “effect on secretion” value [2, 9] was “cytokines release decrease in a dose dependent manner”, the “effect on LPS-induced IL-8 release” value [2, 7] was “not affected” and the “inhibition of LPS-induced TNF-α release” value [2, 10] was “approx. 30%”. For the same molecule, the “inhibition of LPS-induced IL-1β release” value [2, 18] was about 20%, the “inhibition of LPS-induced IL-6 release” value [2, 18] was about 20% and the “inhibition of LPS-induced IL-8 release” value [2, 18] was about 20%. The “inhibition of LPS-induced TNF-α release” value [2, 18] was “approx. 30%”, the “inhibition of LPS-induced IL-6 release” value [2, 19] was “about 10%” and the “inhibition of LPS-induced TNF-α release” value [2, 19] was “approx. 30%”. The “inhibition of LPS-induced TNF-α release” value ([2]; 250 μM, 48 h pre-treatment, then 24 h LPS) was “approx. 40%” and the antidepressant-relevant behavioral responses [4] was “exert antidepressant-relevant behavioral responses”.

In the case of `Cc1ccc(-c2cc(C(F)(F)F)nn2-c2ccc(S(N)(=O)=O)cc2)cc1` [Celebrex], the PGE2 levels [5] is listed as “significantly reduced”.

In the case of `C[C@@H]1C[C@H]2[C@@H]3CCC4=CC(=O)C=C[C@]4(C)[C@@]3(F)[C@@H](O)C[C@]2(C)[C@@]1(O)C(=O)CO` [Dexamethasone, dexamethasone], the “reduction of cytokines release” value ([2]; 10 μM, control, 30 min pre-treatment study (not shown)) is reported as “about 60%”.

For `CN[C@]1(c2ccccc2Cl)CCCCC1=O` [S-ketamine, (S)-ketamine], the “surgery-associated increase in IL-6” value [6] is given as “attenuates” and the “surgery-associated increase in TNF” value [6] is given as “attenuates”.

For (2R,6R;2S,6S)-HNK, the anesthetic effects [3] is given as “no anesthetic or hyperlocomotor effects”.
